PubChem BioAssay AID1259408 (Genetic Toxicology Data Bank (GENE-TOX), 2018)
Active and inactive are the calls of the source. How the calls were made is not given here.

System: GENE-TOX genotoxicity assays, various organisms and cells
Experiment: GENE-TOX mutagenicity studies
Conditions: for call: Assay Type: In vivo carcinogenicity studies
[1] = Species/Cell Type: Nonhuman, Assay Code: CCGT, Evaluation Type: Evaluation A (Pre-1980)
[2] = Species/Cell Type: Nonhuman, Assay Code: CCG+, Evaluation Type: Evaluation A (Pre-1980)
[3] = Species/Cell Type: Salmonella typhimurium (one or more of the five standard strains: TA98, TA100, TA1535, TA1537, and TA1538), Assay Type: Histidine reverse gene mutation, Ames assay, Assay Code: SAL+, Evaluation Type: Evaluation A (Pre-1980)
[4] = Species/Cell Type: Fischer rat embryo (RLV/1706) cells, Assay Type: Cell transformation, viral enhanced, Assay Code: CTR+, Evaluation Type: Evaluation A (Pre-1980)
[5] = Species/Cell Type: Mouse (BALB/c-3T3) cells, Assay Type: Cell transformation, Assay Code: CTB+D, Dose Response: With dose response, Evaluation Type: Evaluation A (Pre-1980)
[6] = Species/Cell Type: Nonhuman, Assay Code: CCG+L, Evaluation Type: Evaluation A (Pre-1980)
[7] = Species/Cell Type: Nonhuman, Assay Type: Sister-chromatid exchange (SCE) in vitro, Assay Code: SC2+D, Dose Response: With dose response, Evaluation Type: Evaluation A (Pre-1980)
[8] = Species/Cell Type: Nonhuman, Assay Type: Sister-chromatid exchange (SCE) in vivo, Assay Code: SC3+D, Dose Response: With dose response, Evaluation Type: Evaluation B (Post-1980)
[9] = Species/Cell Type: Salmonella typhimurium (one or more of the five standard strains: TA98, TA100, TA1535, TA1537, and TA1538), Assay Type: Histidine reverse gene mutation, Ames assay, Assay Code: SALT, Evaluation Type: Evaluation A (Pre-1980)

c1cc2c3c(cccc3c1)CC2
mutagenic call (Species/Cell Type: Drosophila melanogaster, Assay Type: Aneuploidy, sex chromosome gain, chromosome aberrations, Assay Code: DAGT, Evaluation Type: Evaluation A (Pre-1980)): no conclusion

CCCCNC(=O)OCC
call [1]: no conclusion
mutagenic call (Species/Cell Type: Nonhuman, Assay Type: Sister-chromatid exchange (SCE) in vitro, Assay Code: SC2-, Evaluation Type: Evaluation A (Pre-1980)): inactive; negative

CCCCCCC(=O)O[C@H]1CC[C@H]2[C@@H]3CCC4=CC(=O)CC[C@]4(C)[C@H]3CC[C@]12C
mutagenic call (Species/Cell Type: Human, Sex: Male, Assay Type: Sperm morphology, Assay Code: SPH+, Evaluation Type: Evaluation A (Pre-1980)): active; positive
call [2]: active; positive

CCN(CC)Cc1cc(Br)ccc1OCC(=O)N/N=C\c1ccccc1
mutagenic call (Species/Cell Type: Saccharomyces cerevisiae, Assay Type: Reverse gene mutation, Assay Code: YERT, Evaluation Type: Evaluation A (Pre-1980)): no conclusion

O=C(OCC1=CCN2CC[C@@H](OC(=O)c3ccc(Cl)cc3)[C@@H]12)c1ccc(Cl)cc1
mutagenic call (Species/Cell Type: Allium cepa, Assay Type: Chromosome aberrations, Assay Code: ALC+, Evaluation Type: Evaluation A (Pre-1980)): active; positive

O=C(NO)c1cc2ccccc2[nH]1
mutagenic call [3]: active; positive

Nc1ccccc1
mutagenic call (Species/Cell Type: Allium cepa, Assay Type: Chromosome aberrations, Assay Code: ALCT, Evaluation Type: Evaluation A (Pre-1980)): no conclusion
mutagenic call (Species/Cell Type: Escherichia coli polA (W3110 vs P3478), Assay Type: Rec-assay, DNA effects (bacterial DNA repair), Assay Code: RE2-, Evaluation Type: Evaluation A (Pre-1980)): inactive; negative
mutagenic call (Species/Cell Type: Escherichia coli polA (W3119 vs P3478), Assay Type: Rec-assay, DNA effects (bacterial DNA repair), Assay Code: RE1+, Evaluation Type: Evaluation A (Pre-1980)): active; positive
mutagenic call [4]: active; positive
mutagenic call (Species/Cell Type: Human lymphocytes, Assay Type: Sister-chromatid exchange (SCE) in vitro, Assay Code: SCL+, Evaluation Type: Evaluation B (Post-1980)): active; positive
mutagenic call (Species/Cell Type: Human, Assay Type: Sister-chromatid exchange (SCE) in vitro, Assay Code: SC1+, Evaluation Type: Evaluation B (Post-1980)): active; positive
mutagenic call (Species/Cell Type: Mammalian polychromatic erythrocytes, Assay Type: Micronucleus test, chromosome aberrations, Assay Code: MNTT, Evaluation Type: Evaluation B (Post-1980)): no conclusion
mutagenic call [5]: active; positive
mutagenic call (Species/Cell Type: Mouse, Sex: Male, Assay Type: Sperm morphology, Assay Code: SPI-, Evaluation Type: Evaluation A (Pre-1980)): inactive; negative
call [6]: active; positive
call [1]: no conclusion
mutagenic call [7]: active; positive
mutagenic call [8]: active; positive
mutagenic call (Species/Cell Type: Saccharomyces cerevisiae, Assay Type: Mitotic recombination or gene conversion, Assay Code: YEH-, Evaluation Type: Evaluation A (Pre-1980)): inactive; negative
mutagenic call (Species/Cell Type: Salmonella typhimurium (one or more of the five standard strains: TA98, TA100, TA1535, TA1537, and TA1538), Assay Type: Histidine reverse gene mutation, Ames assay, Assay Code: SAL-, Evaluation Type: Evaluation A (Pre-1980)): inactive; negative
mutagenic call (Species/Cell Type: Syrian hamster embryo (SHE) cells, Assay Type: Cell transformation, clonal assay, Assay Code: CTC-, Evaluation Type: Evaluation A (Pre-1980)): inactive; negative

CNC1(c2ccccc2Cl)CCCCC1=O (stereo not given)
mutagenic call [9]: no conclusion

Cc1cc2cc3c(C)cc(=O)oc3c(C)c2o1
mutagenic call (Species/Cell Type: Human lymphocytes, Assay Type: Sister-chromatid exchange (SCE) in vitro, Assay Code: SCLT, Evaluation Type: Evaluation A (Pre-1980)): no conclusion
mutagenic call (Species/Cell Type: Human, Assay Type: Sister-chromatid exchange (SCE) in vitro, Assay Code: SC1T, Evaluation Type: Evaluation A (Pre-1980)): no conclusion

[Cl][Fe]([Cl])[Cl]
mutagenic call (Species/Cell Type: Bacillus subtilis (H17 vs M45), Assay Type: Rec-assay, spot test, DNA effects (bacterial DNA repair), Assay Code: REW-, Evaluation Type: Evaluation A (Pre-1980)): inactive; negative

CCCCCC(=O)c1c(O)cc2c(c1O)C(=O)c1c(O)cc(O)cc1C2=O
mutagenic call [9]: no conclusion

NC(=O)C(=Cc1ccc([N+](=O)[O-])o1)c1ccccc1
mutagenic call [3]: active; positive

CCCNC(=O)NS(=O)(=O)c1ccc(Cl)cc1
mutagenic call (Species/Cell Type: Human lymphocytes, Assay Type: Sister-chromatid exchange (SCE) in vivo, Assay Code: SCY+, Evaluation Type: Evaluation B (Post-1980)): active; positive
mutagenic call (Species/Cell Type: Mammalian polychromatic erythrocytes, Assay Type: Micronucleus test, chromosome aberrations, Assay Code: MNT+, Evaluation Type: Evaluation A (Pre-1980)): active; positive
mutagenic call [7]: active; positive
mutagenic call [8]: active; positive

OCn1cnc2ccccc21
mutagenic call (Species/Cell Type: Arabidopsis species, Assay Type: Gene mutation, Assay Code: ARM-, Evaluation Type: Evaluation A (Pre-1980)): inactive; negative

N#Cc1c(Cl)c(Cl)c(Cl)c(C#N)c1Cl
mutagenic call (Species/Cell Type: Hordeum vulgare (barley), Assay Type: Chromosome aberrations, Assay Code: HOC-, Evaluation Type: Evaluation A (Pre-1980)): inactive; negative
call [6]: active; positive

N#CC(Cl)Cl
mutagenic call (Species/Cell Type: Saccharomyces cerevisiae, Assay Type: Mitotic recombination or gene conversion, Assay Code: YEH+, Evaluation Type: Evaluation A (Pre-1980)): active; positive
mutagenic call [3]: active; positive

Cc1ccc2cc3c(ccc4ccccc43)c3c2c1CC3
mutagenic call (Species/Cell Type: Chinese hamster lung (V79) cells, Assay Type: Forward gene mutation at the HPRT or ouabain locus, Assay Code: V79+*, Activation: With metabolic activation, Evaluation Type: Evaluation A (Pre-1980)): active; positive
mutagenic call (Species/Cell Type: Chinese hamster lung (V79) cells, Assay Type: Forward gene mutation, host-mediated assay, Assay Code: HMG+, Evaluation Type: Evaluation A (Pre-1980)): active; positive
mutagenic call (Species/Cell Type: Chinese hamster ovary (CHO) cells, Assay Type: Forward gene mutation at the HPRT locus, Assay Code: CHO+*, Activation: With metabolic activation, Evaluation Type: Evaluation B (Post-1980)): active; positive
mutagenic call (Species/Cell Type: Drosophila melanogaster, Assay Type: Sex-linked recessive lethal gene mutation, Assay Code: SRLT, Evaluation Type: Evaluation A (Pre-1980)): no conclusion
mutagenic call [4]: active; positive
mutagenic call (Species/Cell Type: Fischer rat embryo (SA7/RE) cells, Assay Type: Cell transformation, viral enhanced, Assay Code: CTA+, Evaluation Type: Evaluation A (Pre-1980)): active; positive
mutagenic call (Species/Cell Type: Human diploid fibroblasts, Assay Type: Unscheduled DNA synthesis (UDS) in vitro, DNA effects, Assay Code: UDH+, Evaluation Type: Evaluation A (Pre-1980)): active; positive
mutagenic call (Species/Cell Type: Human lymphocytes, Assay Type: Sister-chromatid exchange (SCE) in vitro, Assay Code: SCL+D, Dose Response: With dose response, Evaluation Type: Evaluation B (Post-1980)): active; positive
mutagenic call (Species/Cell Type: Human, Assay Type: Sister-chromatid exchange (SCE) in vitro, Assay Code: SC1+D, Dose Response: With dose response, Evaluation Type: Evaluation B (Post-1980)): active; positive
mutagenic call (Species/Cell Type: Mammalian polychromatic erythrocytes, Assay Type: Micronucleus test, chromosome aberrations, Assay Code: MNTT, Evaluation Type: Evaluation A (Pre-1980)): no conclusion
mutagenic call [5]: active; positive
mutagenic call (Species/Cell Type: Mouse (C3H/10T1/2) cells, Assay Type: Cell transformation, Assay Code: CTH+D, Dose Response: With dose response, Evaluation Type: Evaluation A (Pre-1980)): active; positive
mutagenic call (Species/Cell Type: Mouse embryo (AKR/ME) cells, Assay Type: Cell transformation, Assay Code: CTK+, Evaluation Type: Evaluation A (Pre-1980)): active; positive
mutagenic call (Species/Cell Type: Mouse prostate cells, Assay Type: Cell transformation, Assay Code: CTM+D, Dose Response: With dose response, Evaluation Type: Evaluation A (Pre-1980)): active; positive
mutagenic call (Species/Cell Type: Mouse, Sex: Male, Assay Type: Sperm morphology, Assay Code: SPI+, Evaluation Type: Evaluation A (Pre-1980)): active; positive
mutagenic call (Species/Cell Type: Neurospora crassa, Assay Type: Forward gene mutation, Assay Code: NEF+, Evaluation Type: Evaluation A (Pre-1980)): active; positive
mutagenic call (Species/Cell Type: Nonhuman, Assay Type: Chromosome aberrations in vitro, Assay Code: CY&-, Evaluation Type: Evaluation A (Pre-1980)): inactive; negative
call [2]: active; positive
mutagenic call (Species/Cell Type: Nonhuman, Assay Type: Sister-chromatid exchange (SCE) in vitro, Assay Code: SC2+, Evaluation Type: Evaluation A (Pre-1980)): active; positive
mutagenic call (Species/Cell Type: Nonhuman, Assay Type: Sister-chromatid exchange (SCE) in vivo, Assay Code: SC3+D, Dose Response: With dose response, Evaluation Type: Evaluation A (Pre-1980)): active; positive
mutagenic call (Species/Cell Type: Rat primary hepatocytes, Assay Type: Unscheduled DNA synthesis (UDS) in vitro, DNA effects, Assay Code: UDP+D, Dose Response: With dose response, Evaluation Type: Evaluation A (Pre-1980)): active; positive
mutagenic call (Species/Cell Type: Salmonella typhimurium (one or more of the five standard strains: TA98, TA100, TA1535, TA1537, and TA1538), Assay Type: Histidine reverse gene mutation, Ames assay, Assay Code: SAL+*, Activation: With metabolic activation, Evaluation Type: Evaluation A (Pre-1980)): active; positive
mutagenic call (Species/Cell Type: Salmonella typhimurium, Assay Type: Forward and reverse gene mutation, body fluid assay, Assay Code: BFU-, Evaluation Type: Evaluation A (Pre-1980)): inactive; negative
mutagenic call (Species/Cell Type: Syrian hamster embryo (SA7/SHE) cells, Assay Type: Cell transformation, viral enhanced, Assay Code: CT7+, Evaluation Type: Evaluation A (Pre-1980)): active; positive
mutagenic call (Species/Cell Type: Syrian hamster embryo (SHE) cells, Assay Type: Cell transformation, clonal assay, Assay Code: CTC+D, Dose Response: With dose response, Evaluation Type: Evaluation A (Pre-1980)): active; positive
mutagenic call (Species/Cell Type: Syrian hamster embryo (SHE) cells, Assay Type: Cell transformation, focus assay, Assay Code: CTF+, Evaluation Type: Evaluation A (Pre-1980)): active; positive
